Where a name gives a salt, the structure may show the parent alone.
Target: ROCK2 (Homo sapiens, UniProt O75116)
Assay: ROCK assay: phosphorylation of FITC peptide substrate, LABCHIP 3000 mobility shift
Type: biochemical
Settings: 5 μM ATP, 1.5 μM peptide substrate; read-out: ROCK2 Activity (ROCK IC50 range)
Summary of the method: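 Rho kinase variant phosphorylates 1.5 μM FITC-AHA-AKRRRLSSLRA-OH with 5 μM ATP in 20 mM HEPES pH 7.5, 20 mM MgCl2, 0.015% Brij-35, 4 mM DTT, DMSO <2%. EDTA stops the reaction, and phospho and non-phospho peptides are resolved by LabChip 3000 mobility shift. IC50 from dose-response curve fit.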

ROCK2, sequence (O75116 whole entry, species assumed): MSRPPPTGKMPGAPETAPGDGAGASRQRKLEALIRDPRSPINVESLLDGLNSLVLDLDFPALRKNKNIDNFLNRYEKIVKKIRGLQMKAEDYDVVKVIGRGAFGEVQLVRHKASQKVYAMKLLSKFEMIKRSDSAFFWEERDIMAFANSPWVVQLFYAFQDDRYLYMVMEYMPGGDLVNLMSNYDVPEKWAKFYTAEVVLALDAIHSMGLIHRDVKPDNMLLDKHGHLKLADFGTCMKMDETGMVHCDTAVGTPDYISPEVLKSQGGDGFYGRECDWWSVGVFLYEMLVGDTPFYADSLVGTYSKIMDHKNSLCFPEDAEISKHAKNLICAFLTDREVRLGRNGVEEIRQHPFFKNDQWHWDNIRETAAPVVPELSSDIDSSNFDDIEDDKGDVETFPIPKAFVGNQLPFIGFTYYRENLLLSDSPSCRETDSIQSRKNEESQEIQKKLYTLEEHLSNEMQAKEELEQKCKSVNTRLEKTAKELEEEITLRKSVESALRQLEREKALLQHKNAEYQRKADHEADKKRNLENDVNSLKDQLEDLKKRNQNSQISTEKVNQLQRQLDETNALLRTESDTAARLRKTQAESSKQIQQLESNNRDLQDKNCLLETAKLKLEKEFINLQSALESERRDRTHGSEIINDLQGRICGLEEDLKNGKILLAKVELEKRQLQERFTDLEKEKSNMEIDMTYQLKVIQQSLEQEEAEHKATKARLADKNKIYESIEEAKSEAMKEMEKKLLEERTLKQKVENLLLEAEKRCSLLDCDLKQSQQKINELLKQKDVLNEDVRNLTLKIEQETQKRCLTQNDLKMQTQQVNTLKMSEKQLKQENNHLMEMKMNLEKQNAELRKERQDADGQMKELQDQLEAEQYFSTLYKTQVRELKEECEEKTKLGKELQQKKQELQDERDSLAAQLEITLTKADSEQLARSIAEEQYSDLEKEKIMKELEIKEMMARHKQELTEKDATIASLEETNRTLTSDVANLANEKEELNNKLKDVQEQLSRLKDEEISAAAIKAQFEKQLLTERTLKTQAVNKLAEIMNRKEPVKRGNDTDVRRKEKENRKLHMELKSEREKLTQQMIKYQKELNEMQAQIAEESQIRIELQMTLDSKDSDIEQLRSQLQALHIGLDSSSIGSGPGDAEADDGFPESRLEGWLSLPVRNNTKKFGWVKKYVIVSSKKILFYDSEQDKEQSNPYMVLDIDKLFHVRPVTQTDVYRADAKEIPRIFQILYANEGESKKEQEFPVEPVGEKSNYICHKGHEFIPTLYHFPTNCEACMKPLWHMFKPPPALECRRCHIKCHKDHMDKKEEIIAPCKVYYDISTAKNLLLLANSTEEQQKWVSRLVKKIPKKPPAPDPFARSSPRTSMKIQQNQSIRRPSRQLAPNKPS

Row | SMILES | IC50 [nM]
1 | [H][C@]1(c2n[nH]c(=O)c3ccccc32)C[C@]2(C[C@@H](n3c(=O)[nH]c4ccccc43)C2)C1 (stereo partly drawn) [Example 461, 4-((aR)-6-(2-oxo-2,3-dihydro-1H-benzo[d]imidazol-1-yl)spiro[3.3]heptan-2-yl)phthalazin-1(2H)one] | 100 to 2100
2 | CC(C)(O)Cn1nc(C(=O)NC2CC3(C2)CC(c2n[nH]c(=O)c4ccccc24)C3)c2ccccc21 (single isomer, unassigned) [Example 21] | 2.01 to 5
3 | O=C(N[C@H]1CC2(C1)C[C@H](c1n[nH]c(=O)c3ccccc31)C2)c1cnn2cc(-n3cccn3)ccc12 (stereo partly drawn) [Example 177, N-((αR)-6-(4-oxo-3,4-dihydrophthalazin-1-yl)spiro[3.3]heptan-2-yl)-6-(1H-pyrazol-1-yl)pyrazolo[1,5-α]pyridine-3-carboxamide] | 0.2 to 2
4 | N#Cc1c(O)ccc2c(C(=O)NC3CC4(C3)CC(c3n[nH]c(=O)c5ccccc35)C4)cnn12 [Example 111, 7-cyano-6-hydroxy-N-((aR)-6-(4-oxo-3,4-dihydrophthalazin-1-yl)spiro[3.3]heptan-2-yl)pyrazolo[1,5-a]pyridine-3-carboxamide] | 15.1 to 100
5 | O=C(N[C@H]1CC2(C1)C[C@H](c1n[nH]c(=O)c3ccccc31)C2)c1cnn2cc(N3CCCC3=O)ccc12 (stereo partly drawn) [Example 165, N-((aR)-6-(4-oxo-3,4-dihydrophthalazin-1-yl)spiro[3.3]heptan-2-yl)-6-(2-oxopyrrolidin-1-yl)pyrazolo[1,5-a]pyridine-3-carboxamide] | 5.1 to 15
6 | O=C(N[C@H]1CC2(C1)C[C@H](c1n[nH]c(=O)c3ccccc31)C2)N1Cc2ccccc2C1 (stereo partly drawn) [Example 51, N-((aR)-6-(4-Oxo-3,4-dihydrophthalazin-1-yl)spiro[3.3]heptan-2-yl)isoindoline-2-carboxamide] | 5.1 to 15
7 | O=C(NC1CC2(C1)CC(c1n[nH]c(=O)c3ccccc13)C2)c1cnn2cc(OCc3nnc(C4CC4)s3)ccc12 (stereo not drawn) [Example 140, 6-((5-cyclopropyl-1,3,4-thiadiazol-2-yl)methoxy)-N-((αR)-6-(4-oxo-3,4-dihydrophthalazin-1-yl)spiro[3.3]heptan-2-yl)pyrazolo[1,5-α]pyridine-3-carboxamide] | 0.2 to 2
8 | CC(C)(Oc1ccc2c(C(=O)N[C@H]3CC4(C3)C[C@H](c3n[nH]c(=O)c5ccccc53)C4)cnn2c1)C(=O)O (stereo partly drawn) [Example 469, 2-methyl-2-((3-(((aR)-6-(4-oxo-3,4-dihydrophthalazin-1-yl)spiro[3.3]heptan-2-yl)carbamoyl)pyrazolo[1,5-a]pyridin-6-yl)oxy)propanoic acid] | 15.1 to 100
9 | Cn1cc(-c2ccc3c(C(=O)NC4CC5(C4)CC(c4n[nH]c(=O)c6ccccc46)C5)cnn3c2)c(C(F)(F)F)n1 [Example 223, 6-(1-methyl-3-(trifluoromethyl)-1H-pyrazol-4-yl)-N-((aR)-6-(4-oxo-3,4-dihydrophthalazin-1-yl)spiro[3.3]heptan-2-yl)pyrazolo[1,5-a]pyridine-3-carboxamide] | 0.2 to 2
10 | Cn1nc(C(=O)N[C@H]2CC3(C2)C[C@H](c2n[nH]c(=O)c4ccccc42)C3)c2ccccc21 (single isomer, unassigned) [Example 14] | 2.01 to 5
11 | Cn1cc(-c2ccc3c(C(=O)NC4CC5(C4)CC(c4n[nH]c(=O)c6ccccc46)C5)cnn3c2)cn1 (stereo not drawn) [Example 170, 6-(1-methyl-1H-pyrazol-4-yl)-N-((αR)-6-(4-oxo-3,4-dihydrophthalazin-1-yl)spiro[3.3]heptan-2-yl)pyrazolo[1,5-α]pyridine-3-carboxamide] | 0.2 to 2
12 | CC(C)(C)n1cc(-c2ccc3c(C(=O)NC4CC5(C4)CC(c4n[nH]c(=O)c6ccccc46)C5)cnn3c2)cn1 [Example 225, 6-(1-(tert-butyl)-1H-pyrazol-4-yl)-N-((aR)-6-(4-oxo-3,4-dihydrophthalazin-1-yl)spiro[3.3]heptan-2-yl)pyrazolo[1,5-a]pyridine-3-carboxamide] | 0.2 to 2
13 | O=C(C1CC2(C1)CC(c1n[nH]c(=O)c3ccccc13)C2)N1CCc2ccccc21 (stereo not drawn) [Example 46, 4-(6-(Indoline-1-carbonyl)spiro[3.3]heptan-2-yl)phthalazin-1(2H)-one(2H)-one] | 100 to 2100

Results, then the compound that gave them:

Row | IC50 [nM] | SMILES
14 | 2.01 to 5 | [H][C@]1(c2n[nH]c(=O)c3ccccc32)C[C@]2(C[C@@H](NC(=O)c3cnc4c(Cl)cccn34)C2)C1 (stereo partly drawn) [Example 382, 8-chloro-N-((aR)-6-(4-oxo-3,4-dihydrophthalazin-1-yl)spiro[3.3]heptan-2-yl)imidazo[1,2-a]pyridine-3-carboxamide]
15 | 2.01 to 5 | [H][C@]1(c2n[nH]c(=O)c3ccccc32)C[C@]2(C[C@@H](NC(=O)c3nc(C(C)C)n4c3CCCC4)C2)C1 (stereo partly drawn) [Example 388, 3-isopropyl-N-((aR)-6-(4-oxo-3,4-dihydrophthalazin-1-yl)spiro[3.3]heptan-2-yl)-5,6,7,8-tetrahydro-imidazo[1,5-a]pyridine-1-carboxamide]
16 | 5.1 to 15 | [H][C@]1(c2n[nH]c(=O)c3ccccc32)C[C@]2(C[C@@H](NC(=O)c3ccc(-c4cn[nH]c4)cc3)C2)C1 (stereo partly drawn) [Example 337, N-((aR)-6-(4-oxo-3,4-dihydrophthalazin-1-yl)spiro[3.3]heptan-2-yl)-4-(1H-pyrazol-4-yl)benzamide]
17 | 5.1 to 15 | Cc1sc(NC2CC(F)(F)C2)nc1C(=O)NC1CC2(C1)CC(c1n[nH]c(=O)c3ccccc13)C2 [Example 57, 2-((3,3-difluorocyclobutyl)amino)-5-methyl-N-((aR)-6-(4-oxo-3,4-dihydrophthalazin-1-yl)spiro[3.3]heptan-2-yl)thiazole-4-carboxamide]
18 | 15.1 to 100 | [H][C@]1(c2n[nH]c(=O)c3ccccc32)C[C@]2(C[C@@H](NC(=O)c3ccc4c(cnn4C)c3)C2)C1 (stereo partly drawn) [Example 373, 1-methyl-N-((aR)-6-(4-oxo-3,4-dihydrophthalazin-1-yl)spiro[3.3]heptan-2-yl)-1H-indazole-5-carboxamide]
19 | 2.01 to 5 | [H][C@]1(c2n[nH]c(=O)c3ccccc32)C[C@]2(C[C@@H](NC(=O)c3cnc4cc(OC(CF)CF)ccn34)C2)C1 (stereo partly drawn) [Example 433, 7-((1,3-difluoropropan-2-yl)oxy)-N-((aR)-6-(4-oxo-3,4-dihydrophthalazin-1-yl)spiro[3.3]heptan-2-yl)imidazo[1,2-a]pyridine-3-carboxamide]
20 | 2.01 to 5 | COCc1c(OCC(C)(C)O)ccc2c(C(=O)NC3CC4(C3)CC(c3n[nH]c(=O)c5ccccc35)C4)cnn12 [Example 113, 6-(2-hydroxy-2-methylpropoxy)-7-(methoxymethyl)-N-((aR)-6-(4-oxo-3,4-dihydrophthalazin-1-yl)spiro[3.3]heptan-2-yl)pyrazolo[1,5-a]pyridine-3-carboxamide]
21 | 15.1 to 100 | O=C(NC1CC2(C1)CC(c1n[nH]c(=O)c3ccccc13)C2)c1ccnn1C(F)F [Example 286, 1-(difluoromethyl)-N-((aR)-6-(4-oxo-3,4-dihydrophthalazin-1-yl)spiro[3.3]heptan-2-yl)-1H-pyrazole-5-carboxamide]
22 | 2.01 to 5 | O=C(NC1CC2(C1)CC(c1n[nH]c(=O)c3ccccc13)C2)N1Cc2ccc(-c3cnn(C4CC4)c3)cc2C1 [Example 247, 5-(1-cyclopropyl-1H-pyrazol-4-yl)-N-((aR)-6-(4-oxo-3,4-dihydrophthalazin-1-yl)spiro[3.3]heptan-2-yl)isoindoline-2-carboxamide]
23 | 5.1 to 15 | Cn1nc(C(F)(F)F)cc1C(=O)NC1CC2(C1)CC(c1n[nH]c(=O)c3ccccc13)C2 [Example 25, 1-methyl-N-[(aR)-6-(4-oxo-3,4-dihydrophthalazin-1-yl)spiro[3.3]heptan-2-yl]-3-(trifluoromethyl)-1H-pyrazole-5-carboxamide]
24 | 0.2 to 2 | CCn1cc(-c2ccn3c(C(=O)N[C@H]4CC5(C4)C[C@H](c4n[nH]c(=O)c6ccccc64)C5)cnc3c2)cn1 (stereo partly drawn) [Example 439, 7-(1-ethyl-1H-pyrazol-4-yl)-N-((aR)-6-(4-oxo-3,4-dihydrophthalazin-1-yl)spiro[3.3]heptan-2-yl)imidazo[1,2-a]pyridine-3-carboxamide, TFA salt]
25 | 5.1 to 15 | [H][C@]1(c2n[nH]c(=O)c3ccccc32)C[C@]2(C[C@@H](NC(=O)c3ccc(-n4cnc(C)c4)c(OC)c3)C2)C1 (stereo partly drawn) [Example 349, 3-methoxy-4-(4-methyl-1H-imidazol-1-yl)-N-((aR)-6-(4-oxo-3,4-dihydrophthalazin-1-yl)spiro[3.3]heptan-2-yl)benzamide]
26 | 5.1 to 15 | [H][C@]1(c2n[nH]c(=O)c3ccccc32)C[C@]2(C[C@@H](NC(=O)N3CCc4ccccc43)C2)C1 (stereo partly drawn) [Example 50, N-((aR)-6-(4-Oxo-3,4-dihydrophthalazin-1-yl)spiro[3.3]heptan-2-yl)indoline-1-carboxamide]
27 | 100 to 2100 | O=C(NC1CC2(C1)CC(c1n[nH]c(=O)c3ccccc13)C2)c1ccnn1C1CCOCC1 [Example 104, N-((aR)-6-(4-oxo-3,4-dihydrophthalazin-1-yl)spiro[3.3]heptan-2-yl)-1-(tetrahydro-2H-pyran-4-yl)-1H-pyrazole-5-carboxamide]
28 | 0.2 to 2 | [H][C@]1(c2n[nH]c(=O)c3ccccc32)C[C@]2(C[C@@H](NC(=O)c3cnc4cc(SC)ccn34)C2)C1 (stereo partly drawn) [Example 414, 7-(methylthio)-N-((aR)-6-(4-oxo-3,4-dihydrophthalazin-1-yl)spiro[3.3]heptan-2-yl)imidazo[1,2-a]pyridine-3-carboxamide]
29 | 15.1 to 100 | [H][C@]1(c2n[nH]c(=O)c3ccccc32)C[C@]2(C[C@@H](NC(=O)c3cnc4cc(C(C)(C)O)ccn34)C2)C1 (stereo partly drawn) [Example 429, 7-(2-hydroxypropan-2-yl)-N-((aR)-6-(4-oxo-3,4-dihydrophthalazin-1-yl)spiro[3.3]heptan-2-yl)imidazo[1,2-a]pyridine-3-carboxamide]
30 | 5.1 to 15 | O=C(NC1CC2(C1)CC(c1n[nH]c(=O)c3ccccc13)C2)c1noc2ccccc12 [Example 71, N-((aR)-6-(4-oxo-3,4-dihydrophthalazin-1-yl)spiro[3.3]heptan-2-yl)benzo[d]isoxazole-3-carboxamide]
